Reference: patent publication US20110105436A1, “HETEROARYL COMPOUNDS, COMPOSITIONS, AND METHODS OF USE IN CANCER TREATMENT” (AUCKLAND UNISERVICES LIMITED, priority 2008, published 2011)

Assays:
RCC4/VHL cells = assay: XTT assay, RCC4/VHL versus RCC4 cells (selectivity ratio); assay type: cell-based; details: selectivity ratio, IC50 in RCC4/VHL cells/IC50 in RCC4 cells
Procedure: (§1) Cell Viability and XTT assays. For cell viability, 100,000 cells were plated in a 12-well plate. The following day, 1.25 μM STF-62247 was added in the presence or absence of 1 mM 3-MA for 24 hours at 37° C. Cells were trypsinized and counted by trypan blue exclusion. For XTT assays, 5000 RCC4 with and without VHL cells or 2,500 SN12C with and without VHL shRNA cells were plated in 96-well plates. The following day, vehicle (DMSO), STF-62247 or each of 19 analogs were added to media by serial dilution. Four days later, the media was aspirated and XTT solution containing 0.3 mg/ml of XTT (Sigma Chemical Co) in Phenol Red-free media, 20% FCS and 2.65 mg/ml N-methyl dibenzopyrazine methyl sulfate (PMS) was added to the cells and incubated at 37° C. for 1-2 hours. Metabolism of XTT was quantified by measuring the absorbance at 450 nm on a plate reader.
A. RCC4 and RCC4/VHL were treated with 1.25 μM of each 19 analogs for 20 hours and the presence of vacuoles was examined under light microscopy. B. Western blot for LC3 after treatment with each compound. Tubulin was used as loading control. Ratio is the relative from the IC50 in RCC4/VHL cells/IC50 in RCC4 cells. C. Acidic vesicle organelles (AVO) measured by FACS analysis in cells treated with 1.25 μM of STF-62247 or with compounds 21, 15, 25, 47, and 53 and stained with acridine orange.

RCC4 cells = assay: XTT assay in VHL-deficient RCC4 cells; assay type: cell-based; details: Homo sapiens, 96 h, XTT assay, VHL-deficient RCC4 cells, four days
Procedure: as §1

Structure (SMILES)	Ratio (RCC4/VHL cells; Table 1)	IC50 (RCC4 cells; Table 1) [µM]	Ratio (RCC4/VHL cells; Table 2)	IC50 (RCC4 cells; Table 2) [µM]
O=P(O)(O)Oc1cccc(Nc2nc(-c3ccncc3)cs2)c1 [Compound 39, 3-{[4-(4-Pyridinyl)-1,3-thiazol-2-yl]amino}phenyl Dihydrogen Phosphate]	1.1	29		
O=P(O)(O)Oc1ccc(Nc2nc(-c3ccncc3)cs2)cc1 [Compound 41, 4-{[4-(4-Pyridinyl)-1,3-thiazol-2-yl]amino}phenyl Dihydrogen Phosphate]	6.3	3		
COc1ccc(Nc2nc(-c3ccncc3)cs2)cc1 [Compound 27, N-(4-Methoxyphenyl)-4-(4-pyridinyl)-1,3-thiazol-2-amine]	3.6	14		
Cc1cccc(Nc2nc(-c3ccncc3)c(C(N)=O)s2)c1 [Compound 91, 2-[(3-Methylphenyl)amino]-4-(4-pyridinyl)-1,3-thiazole-5-carboxamide]	>2.0	19.2		
Cc1cccc(Nc2nc(-c3cc(Cl)nc(Cl)c3)cs2)c1 [Compound 158, N-[4-(2,6-Dichloro-4-pyridinyl)-1,3-thiazol-2-yl]-N-(3-methylphenyl)amine]			2.3	15
CC(=O)c1ccc(Nc2nc(-c3ccncc3)cs2)cc1 [Compound 131, 1-(4-{[4-(4-Pyridinyl)-1,3-thiazol-2-yl]amino}phenyl)ethanone]	3.1	3.8		
C#Cc1cc(-c2csc(Nc3cccc(C)c3)n2)ccn1 [Compound 159, 4-(2-Ethynyl-4-pyridinyl)-N-(3-methylphenyl)-1,3-thiazol-2-amine]			>2.2	17.8
Clc1ccccc1Nc1nc(-c2ccncc2)cs1 [Compound 115, N-[2-Chlorophenyl]-4-(4-pyridinyl)-1,3-thiazol-2-amine]	>1.4	27.6		
Cc1cccc(Nc2nc(-c3ccncc3)c(C(=O)N(C)C)s2)c1 [Compound 92, N,N-Dimethyl-2-[(3-methylphenyl)amino]-4-(4-pyridinyl)-1,3-thiazole-5-carboxamide]	>2.5	16		
Cc1cccc(Nc2nc(-c3ccncc3[N+](=O)[O-])cs2)c1 [Compound 181]			4.1	8.2
Cc1cccc(Nc2nc(-c3ccncc3C#CCO)cs2)c1 [Compound 186, 3-(4-{2-[(3-Methylphenyl)amino]-1,3-thiazol-4-yl}-3-pyridinyl)-2-propyn-1-ol]			11.9	0.24
Cc1cccc(Nc2nc(-c3ccncc3F)cs2)c1 [Compound 170, 4-(3-Fluoro-4-pyridinyl)-N-(3-methylphenyl)-1,3-thiazol-2-amine]			>20	2
Clc1ccc(Nc2nc(-c3ccncc3)cs2)cc1 [Compound 31, N-(4-Chlorophenyl)-4-(4-pyridinyl)-1,3-thiazol-2-amine]	>2	38		
Cc1cccc(Nc2nc(-c3ccncc3)c(CN(C)C)s2)c1 [Compound 83, 5-[(Dimethylamino)methyl]-N-(3-methylphenyl)-4-(4-pyridinyl)-1,3-thiazol-2-amine]	2.3	16		
Cc1ccc(Nc2nc(-c3ccncc3)cs2)cc1C [Compound 43, N-(3,4-Dimethylphenyl)-4-(4-pyridinyl)-1,3-thiazol-2-amine]	6.4	6.5		
Clc1cccc(Nc2nc(-c3ccncc3)cs2)c1 [Compound 17, N-(3-Chlorophenyl)-4-(4-pyridinyl)-1,3-thiazol-2-amine]	5	3		
Cc1cccc(Nc2nc(-c3cc(-c4ccccc4)nc4ccccc34)cs2)c1 [Compound 194, N-(3-Methylphenyl)-4-(2-phenyl-4-quinolinyl)-1,3-thiazol-2-amine]			>1.6	25.4

Structure (SMILES)	Ratio (RCC4/VHL cells; Table 1)	IC50 (RCC4 cells; Table 1) [µM]	Ratio (RCC4/VHL cells; Table 2)	IC50 (RCC4 cells; Table 2) [µM]
CC(C)c1cccc(Nc2nc(-c3ccncc3)cs2)c1 [Compound 9, N-(3-Isopropylphenyl)-4-(4-pyridinyl)-1,3-thiazol-2-amine]	1.4	17		
COc1cc(-c2csc(Nc3cccc(C)c3)n2)ccn1 [Compound 141, N-{4-[2-(Methyloxy)-4-pyridinyl]-1,3-thiazol-2-yl}-N-(3-methylphenyl)amine]			1.2	28.7
Cc1cccc(Nc2nc(-c3ccncc3Br)cs2)c1 [Compound 178, 4-(3-Bromo-4-pyridinyl)-N-(3-methylphenyl)-1,3-thiazol-2-amine]			>10	3.9
Cc1cccc(Nc2nc(-c3ccncc3CCCO)cs2)c1 [Compound 187, 3-(4-{2-[(3-Methylphenyl)amino]-1,3-thiazol-4-yl}-3-pyridinyl)-1-propanol]			>5.9	6.8
C#Cc1cnccc1-c1csc(Nc2cccc(C)c2)n1 [Compound 184, 4-(3-Ethynyl-4-pyridinyl)-N-(3-methylphenyl)-1,3-thiazol-2-amine]			4.4	1.35
Cc1cccc(Nc2nc(-c3ccncc3)c(CCCN3CCOCC3)s2)c1 [Compound 82, N-(3-Methylphenyl)-5-[3-(4-morpholinyl)propyl]-4-(4-pyridinyl)-1,3-thiazol-2-amine]	1.6	5.8		
COc1ccccc1Nc1nc(-c2ccncc2)cs1 [Compound 109, N-(2-Methoxyphenyl)-4-(4-pyridinyl)-1,3-thiazol-2-amine]	>1.2	33.4		
OCc1sc(Nc2ccc3c(c2)CCC3)nc1-c1ccncc1 [Compound 76, [2-(2,3-Dihydro-1H-inden-5-ylamino)-4-(4-pyridinyl)-1,3-thiazol-5-yl]methanol]	1.4	6.8		
CCc1cc(-c2csc(Nc3cccc(C)c3)n2)ccn1 [Compound 160, 4-(2-Ethyl-4-pyridinyl)-N-(3-methylphenyl)-1,3-thiazol-2-amine]			>6.3	6.4
CCc1cnccc1-c1csc(Nc2cccc(C)c2)n1 [Compound 185, 4-(3-Ethyl-4-pyridinyl)-N-(3-methylphenyl)-1,3-thiazol-2-amine]			2.8	6.2
Cc1cccc(Nc2nc(-c3ccnc(Br)c3)cs2)c1 [Compound 154, 4-(2-Bromo-4-pyridinyl)-N-(3-methylphenyl)-1,3-thiazol-2-amine]			>10	3.9
Cc1cccc(Nc2nc(-c3ccncc3Cl)cs2)c1 [Compound 174, 4-(3-Chloro-4-pyridinyl)-N-(3-methylphenyl)-1,3-thiazol-2-amine]			>13.8	2.9
CCc1cccc(Nc2nc(-c3ccncc3)cs2)c1 [Compound 7, N-(3-Ethylphenyl)-4-(4-pyridinyl)-1,3-thiazol-2-amine]	9.6	2.5		
Cc1cc(C)cc(Nc2nc(-c3ccncc3)cs2)c1 [Compound 45, N-(3,5-Dimethylphenyl)-4-(4-pyridinyl)-1,3-thiazol-2-amine]	>9	4.5		
CN(C)CCc1ccc(Nc2nc(-c3ccncc3)cs2)cc1 [Compound 36, N-{4-[2-(Dimethylamino)ethyl]phenyl}-4-(4-pyridinyl)-1,3-thiazol-2-amine]	1.2	50		
Cc1cccc(Nc2nc(-c3ccncc3)c(C)s2)c1 [Compound 71, 5-Methyl-N-(3-methylphenyl)-4-(4-pyridinyl)-1,3-thiazol-2-amine]	>4	10		
